The values that follow come from patent US6593362B2, “Non-peptidic cyclophilin binding compounds and their use” (Guilford Pharmaceuticals Inc., priority 2001, dated 2003).

One data set concerns ventral horn motoneurons. The data set can be described thus: Neuroprotection assay, THA-treated organotypic spinal cord slice cultures. It is filed as cell-based. The note with it: THA 200 μM + compound 10 μM, rat spinal cord slice cultures, FIGS. 1-6. On the procedure:
For each of FIGS. 1-6, the bar graphs represent the number of viable neurons after a specified treatment regimen employed in a neuroprotective activity assay. The cells of the experiments were treated with a control solution, a neurotoxic solution, and neurotoxic+experimental compound solution. The statistical significance, p, is calculated using the standard 2 tailed Student's t test.
Protection of cells from calcium-related physiological stress can be assessed in a neuroprotection assay. Organotypic slice cultures of rat spinal cord tissue display a protracted loss of ventral horn motoneurons when exposed to the glutamate uptake inhibitor THA. […] Each experiment consisted of two 6-well plates with 5 slices from 4 different animals per well. Media changes were performed every 3 to 4 days. […] The control was an untreated sample with 0.1% DMSO as vehicle. The THA control was a THA treated sample with 0. 1% DSMO as vehicle. Two wells were used per condition. One media change with new THA and compounds was performed. The experiment was stopped 6 to 8 days following drug treatment (13-15 total days in vitro, DIV) as dictated by visual assessment of lesion, by fixation with 4% paraformaldehyde/0.1 M phosphate buffer for 30 minutes. Slices were permeabilized with 100% cold methanol for 10 minutes. Slices were transferred to staining wells. The slices were blocked with 10% horse serum/TBS. Primary antibody incubation was overnight at 4° C. with SMI-32 antibody 1:5000 in 2% horse serum/TBS. SMI-32 is specific towards the unphosphorylated H neurofilament subunit, and was here utilized as a marker for ventral horn motoneurons. A Vectastain ABC Elite Kit with rat absorbed anti-mouse secondary antibody was used with DAB to stain the slices. The slices were mounted under DPX mounting solution for microscopy.
Quantification of surviving neurons was performed on a Zeiss Axiovert microscope. Neuronal survival was determined by observing an intact neuronal cell body with processes located ventrally of the central canal in each hemisphere. This correlated to laminae VII, VIII and IX. Each hemisphere was counted individually. The statistics were performed with StatView software on a minimum of three different experiments per condition and significance was determined as compared to THA control. The percent of protection was determined from the average number of living neurons by the following equation: (drug treatment condition —THA control)/(Untreated control-THA control).

For the next data set, the target named is CyP A (Homo sapiens, UniProt P62937). The data set can be described thus: biochemical. The conditions noted are these: for inhibition at 10 µM: read-out: % Inhibition at 10 μM. On the procedure: A number of substrates for rotamase are known in the art or can be derived from those known. Typically, the substrate contacts a sample containing a protein with rotamase activity and the conversion of the substrate is detected after a period of time. The method for detecting conversion of the substrate will vary with the particular substrate chosen.
The following were added to a plastic cuvette: […] of ice cold assay buffer (25 mM HEPES, pH 7.8, 100 mM NaCl), 10 μL of CyP A (2.5 μM in 10 mM Tris-Cl pH 7.5, 100 mM NaCl, 1 mM dithiothreitol), 25 μL of chymotrypsin (50 mg/ml in 1 mM HCl), and 10 μL of test compound, at various concentrations, in dimethyl sulfoxide. The reaction was initiated by the addition of 5 μL of substrate (succinyl-Ala-Phe-Pro-Phe-para-nitroanilide, 5 mg/mL in 470 mM LiCl in trifluoroethanol). The absorbance at 390 nm versus time was monitored for 90 seconds using a spectrophotometer.
While CyP A is used in these examples, other CyP proteins can be substituted.

A further data set relates to neuronal cells. As to the kind of experiment: Neurotrophic or neuroprotectant activity (assay not specified). It is filed as cell-based. The source says:
In general, activity in the nervous system for a particular compound can be identified by assaying for the ability to promote neurite outgrowth, protect neurons from damage by chemical treatments, promote the growth of neurons or neuronal cells, recover lost or damaged motor, functional or cognitive ability associated with nervous tissue or organs of the nervous system, or regenerate neurons. These activities can be useful in treating, diagnosing, or prognosing a number of human disease conditions, including, but not limited to, Parkinson's disease, Alzheimer's disease, amyotrophic lateral sclerosis (ALS), traumatic injury, spinal cord injury, multiple sclerosis, diabetic neuropathy, neuropathy associated with medical treatments such as chemotherapy, ischemia or ischemia-induced injury, stroke, oxygen deprivation, retinopathies, peripheral neuropathies, and neuropathies associated with viral infection.
Preferred methods for detecting neuronal activity include a neuroprotective assay, in which a compound is tested for the ability to protect against treatment causing glutamate neurotoxicity. Sensory neuronal cultures (DRG) can also be assayed for neurite outgrowth, an assay for neurotrophic activity. […] Immunohistochemistry can aid in the visualization and quantitation of neurites as compared to control.

CyP A, sequence (P62937 whole entry): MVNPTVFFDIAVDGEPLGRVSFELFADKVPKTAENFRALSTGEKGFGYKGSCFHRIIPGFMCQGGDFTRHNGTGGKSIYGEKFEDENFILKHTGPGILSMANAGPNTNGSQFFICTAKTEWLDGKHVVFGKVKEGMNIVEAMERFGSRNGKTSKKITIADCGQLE

Consider cyclosporin A [CsA, reference compound], for which the “neuroprotective activity (number of viable neurons)” value (shortened to “neuroprotective activity”) in the data set with ventral horn motoneurons is listed as “maintains neuronal viability”.

The term inhibition denotes the relative decrease from the control value, in per cent. With `O=C(Nc1cccc(NC(=O)N(c2ccccc2)c2ccccc2)c1)N(c1ccccc1)c1ccccc1` [Compound 22], at CyP A, the inhibition at 10 µM was found to be 100%. One may read the IC50 as the point on the concentration scale where inhibition reaches its midpoint. The low end stands for inhibition by little substance, the high end for a need for much substance. The term melting point denotes the temperature of the solid-liquid transition. `O=S(=O)(Nc1cccc(OCCc2cccc3ccccc23)c1)c1cccc2ccccc12` [Compound 13] gave a melting point of 165 to 167 °C. For the same molecule, at CyP A, the IC50 stood at 830 nM and the inhibition at 10 µM came out at 100%. In the case of `O=C(Nc1ccccc1)Nc1cc(NC(=O)Nc2ccccc2)cc(C(F)(F)F)c1` [Compound 7], the inhibition at 10 µM on CyP A came to 100%. Moreover, the “neurotrophic or neuroprotectant activity” value with neuronal cells is on record as “possess neurotrophic or neuroprotectant activity”. On to `O=C(NCc1cccc(CNC(=O)Nc2ccc(Br)cc2Br)c1)Nc1ccc(Br)cc1Br` [Compound 31], for which the inhibition at 10 µM at CyP A came out at 100%.

As for `O=C(Nc1cccc2ccccc12)NC1CCCC(NC(=O)Nc2cccc3ccccc23)C1` (centres unmarked) [Compound 10], the IC50 at CyP A amounted to 4500 nM. This counts as single-digit micromolar. With `O=C(Nc1cccc(S(=O)(=O)NC(c2ccccc2)c2ccccc2)c1)c1cc(Cl)cc(Cl)c1` [Compound 18], on CyP A, the IC50 turned out to be 520 nM and the inhibition at 10 µM was found to be 100%. On to `O=C(NCc1cccc(CNC(=O)Nc2cc(Cl)cc(Cl)c2)c1)Nc1cc(Cl)cc(Cl)c1` [Compound 30], for which the inhibition at 10 µM at CyP A was found to be 88%. `CN(C)c1ccc(NC(=O)Nc2cc(NC(=O)Nc3ccc(N(C)C)cc3)c(Br)cc2Br)cc1` [Compound 19]: on CyP A, the half-inhibitory concentration (IC50) amounted to 2900 nM and the inhibition at 10 µM worked out at 98%. For `O=C(Nc1cc(Cl)cc(Cl)c1)NC1CCCC(NC(=O)Nc2cc(Cl)cc(Cl)c2)C1` (centres unmarked) [Compound 23], the inhibition at 10 µM at CyP A worked out at 100%. Consider `O=C(Nc1cc(Cl)cc(Cl)c1)Nc1cccc(NC(=O)Nc2cc(Cl)cc(Cl)c2)c1` [Compound 28], for which the inhibition at 10 µM at CyP A was found to be 100%. `NC(=O)c1ccccc1NC(=O)Nc1cc(NC(=O)Nc2ccccc2C(N)=O)c(Br)cc1Br` [Compound 1]: at CyP A, the inhibition at 10 µM is 100%. Take `Cc1ccc(NC(=O)N(Cc2ccccc2)Cc2ccccc2)cc1NC(=O)N(Cc1ccccc1)Cc1ccccc1` [Compound 4]: on CyP A, the IC50 came to 800 nM and the inhibition at 10 µM is 100%. Further, the “neuroprotective activity” value with ventral horn motoneurons is “displays neuroprotective activity”. As for `CSc1ccc(Cl)cc1C(=O)Nc1cccc(NC(=O)c2cc(Cl)ccc2SC)c1` [Compound 6], the inhibition at 10 µM at CyP A turned out to be 100%. Also, the “neurotrophic or neuroprotectant activity” value in the data set with neuronal cells is “possess neurotrophic or neuroprotectant activity”. As to `O=C(Nc1cc(Cl)cc(Cl)c1)c1cccc(C(=O)Nc2cc(Cl)cc(Cl)c2)c1` [Compound 14], the inhibition at 10 µM on CyP A was 100%.

Regarding `O=C(Nc1cccc(NC(=O)Nc2ccc(Br)cc2Br)c1)Nc1ccc(Br)cc1Br` [Compound 29], the inhibition at 10 µM at CyP A worked out at 89%.

On to `O=C(NCC1CCCC(CNC(=O)Nc2cc(Br)cc(Br)c2)C1)Nc1cc(Br)cc(Br)c1` (centres unmarked) [Compound 26], for which the inhibition at 10 µM on CyP A turned out to be 100%. On the same count and under the same terms, to `O=C(Nc1ccc(Br)cc1Br)NC1CCCC(NC(=O)Nc2ccc(Br)cc2Br)C1` (centres unmarked) [Compound 24] belongs 100%. `O=C(NCc1cccc2ccccc12)c1cccc(NC(=O)c2cc(Cl)cc(Cl)c2)c1` [Compound 16, {3-[(3,5-dichlorophenyl)carbonylamino]phenyl}-N-(naphthylmethyl) formamide]: the melting point is 205 to 208 °C. The inhibition at 10 µM at CyP A stood at 100%.

As for `O=C(Nc1cccc(NC(=O)Nc2ccon2)c1)Nc1ccon1` [Compound 11], on CyP A, the IC50 was determined as 4000 nM and the inhibition at 10 µM amounted to 93%. Moreover, the “neuroprotective activity” value in the data set on ventral horn motoneurons is listed as “displays neuroprotective activity”.

Take `COc1cccc(NC(=O)NC2CCCC(NC(=O)Nc3cccc(OC)c3)C2)c1` (centres unmarked) [Compound 12]: on CyP A, inhibition was half-maximal at 9500 nM (IC50) and the inhibition at 10 µM came out at 47.7%. In the data set on ventral horn motoneurons, the “neuroprotective activity” value is reported as “displays neuroprotective activity”. Take `O=C(NCC1CCCC(CNC(=O)Nc2cc(Cl)cc(Cl)c2)C1)Nc1cc(Cl)cc(Cl)c1` (centres unmarked) [Compound 25]: the inhibition at 10 µM on CyP A was found to be 100%. Still for that read-out and setting: the result for `Cc1ccc(NC(=O)Nc2cccc(NC(=O)Nc3ccc(C)cc3C)c2)c(C)c1` [Compound 27] reads 100%; that for `O=C(NCc1cccc2ccccc12)Nc1cccc(NC(=O)NCc2cccc3ccccc23)c1` [Compound 21], 100%. On to `O=C(Nc1ccc(I)cc1)Nc1cc(NC(=O)Nc2ccc(I)cc2)c(Br)cc1Br` [Compound 3], for which the IC50 at CyP A was 600 nM. Further, the “neuroprotective activity” value with ventral horn motoneurons is given as “displays neuroprotective activity”.

On to `O=C(Nc1cccc(S(=O)(=O)NC(c2ccccc2)c2ccccc2)c1)C(c1ccccc1)c1ccccc1` [Compound 17], for which, on CyP A, 650 nM corresponded to half-maximal inhibition (IC50) and the inhibition at 10 µM is 99%.
